Experimental data: patent publication US11795199B2, “Peptide targeting Mycobacterium tuberculosis toxin-antitoxin system and use thereof” (Seoul National University R&DB Foundation, priority 2017, dated 2023)

Tests used:
[1] = molecular target: T1, VapBC26 protein complex containing Y51E (Mycobacterium tuberculosis, UniProt O53778, Y51E)
[2] = molecular target: T1, VapBC26 protein complex containing Y51E; remark: listed apart in the source

Sequence: DAELAVLRELAG [mimetic peptide for VapC26 α4]
- fluorescence increase in Y51E [1]: 15.07%
- calculated area corresponding to VapC26, larger than with the native protein complex [2]: 15.42%
